Earlier results in patent US20030195186A1, “Methods of treating medication-, substance-, disease-, and other medical condition-related sexual dysfunction” (priority 2002, published 2003).

Settings: intrathecal; spinal-cord injured male patients; case reports

CN(C)C(=O)Oc1cccc([N+](C)(C)C)c1 [neostigmine]
assisting patients with anejaculation to obtain ejaculation: being able to obtain ejaculation
